Measurements published in US20110104167A1, “Compositions and Methods for Diagnosing and Treating Insulin Resistance” (YEDA RESEARCH AND DEVELOPMENT CO. LTD., priority 2004, published 2011).

Test system: Fao cells
Assay: Effect of inducers of insulin resistance on insulin-stimulated Tyr phosphorylation of IRS-1 in Fao cells
Type: cell-based, rat
Protocol: FIGS. 5a-c show the effects of TPA and anisomycin on insulin-induced Tyr phosphorylation of IRS-1^7A in Fao cells. Fao cells were infected with Ad-Myc-IRS-1^WT or Ad-Myc-IRS-1^7A at 7×10^7 PFU/ml. Following 48 hours the cells were deprived of serum for 16 h, and were then treated for 60 min with 200 nM TPA (FIG. 5a); 50 ng/ml of anisomycin (FIG. 5b) or 1 μg/ml of anisomycin (FIG. 5c). This was followed by treatment with 100 nM insulin for 2 min (FIG. 5a) or for the indicated times (FIGS. 5b-c). Cell extracts were prepared, and samples (1 mg) were subjected to immunoprecipitation (IP) with anti-Myc antibodies (FIG. 5a). Immunocomplexes were resolved on 7.5 SDS-PAGE and were immunoblotted with the indicated antibodies. Alternatively, total cell extracts (FIGS. 5b-c) were resolved on 7.5% SDS-PAGE and immunoblotted with the indicated antibodies. Results of a representative of four experiments are presented. The results of two independent experiments done in duplicates were quantified (FIG. 5a, right panel).
FIGS. 6a-b show the dose dependent effect of Palmitic acid on Insulin-induced Tyr phosphorylation of IRS-1 mutants in Fao cells. Fao cells were infected with Ad-Myc-IRS-1^WT or Ad-Myc-IRS-1^7A at 7×10^7 PFU/ml. Following 24 hours the cells were deprived of serum for 12 h, and were then further incubated for 12 h with or without the indicated concentrations of palmitic acid in serum free medium prior to being stimulated with 100 nM insulin for the indicated times. Cell extracts (100 μg) were resolved on 7.5% SDS-PAGE and immunoblotted with anti-PY and anti-Myc antibodies. The results of two independent experiments done in duplicates were quantified.
FIGS. 11a-c show the effects of TPA and anisomycin on insulin-stimulated Tyr phosphorylation of IRS-1^WT, IRS-1^7A and IRS-1^408A. Fao cells were infected with Adeno-myc-IRS-1 wild type (WT); the 7A mutant; or the S408A mutant at a titer of 4-6×10^7 PFU/ml. Following 48 hours the cells were deprived of serum for 16 h, and were then treated for 60 min with 200 nM TPA (FIG. 11a), or 50 ng/ml anisomycin (FIG. 11b), followed by treatment with 100 nM insulin for the indicated times. Cell extracts were prepared, samples (1 mg) were subjected to immunoprecipitation (IP) with anti-Myc antibodies. Immunocomplexes were resolved on 7.5% SDS-PAGE and immunoblotted with anti-PY or anti IRS-1 antibodies.
Infection of Fao cells with adenovirus—Fao cells were grown in RPMI medium containing 10% FCS. At 70% confluence cells were infected with adenoviruses harboring the gene of interest at a titer of 7 10^7 PFU/ml. After incubation for 2 h hours at 37° C., the virus-containing medium was diluted 1:5 in fresh RPMI medium. After 24 h the medium was replaced with a fresh RPMI medium containing 10% FCS. […]

SMILES | reduction in insulin-stimulated Tyr phosphorylation of IRS-1^WT by FFA pre-treatment (FFA 0.5-0.75 mM) | inhibition of insulin-stimulated Tyr phosphorylation of Myc-IRS-1^WT by TPA pretreatment (200 nM TPA 60 min, then 100 nM insulin 2 min)
CCCCCCCCCCCCCCCC(=O)O [FFA, Palmitic acid] | ~35% | –
CCCCCCCCCCCCCC(=O)O[C@@H]1[C@@H](C)[C@@]2(O)[C@@H](C=C(CO)C[C@]3(O)C(=O)C(C)=C[C@@H]23)[C@@H]2C(C)(C)[C@]12OC(C)=O [TPA, phorbol 12-myristate 13-acetate] | – | ~40%
